Test results reported in patent publication US12599671B2, “Compounds, compositions, and methods for protein degradation” (DANA-FARBER CANCER INSTITUTE, INC., priority 2020, dated 2026).

Tests used:
Type in all cases: cell-based
[1] = system: MV4; 11 WT, MV4; 11 CRBN KO, and MOLM13 cells; test: Cell growth ATPlite assay; conditions: Homo sapiens; ATP level by ATPlite, 48 h treatment, normalized to DMSO; cell line not given
Experimental: Human MV4; 11 WT, MV4; 11 CRBN KO, and MOLM13 cells were seeded in 384-well plate and treated with indicated compounds for 48 h. ATP level was measured by ATPlite (PerkinElmer) according to manufactures instructions. Experimental groups were measured in quadruplicate and ATP level was normalized to DMSO. IC50 was analyzed in GraphPad Prism 7.

SMARCA2 [2] = target: T1, SMARCA2 (Homo sapiens, UniProt P51531); test: Immunoblot of SMARCA2 in A549 cells; set-up: endogenous in cells; host or cells: A549; conditions: 1 μM
T1 sequence (P51531 whole entry): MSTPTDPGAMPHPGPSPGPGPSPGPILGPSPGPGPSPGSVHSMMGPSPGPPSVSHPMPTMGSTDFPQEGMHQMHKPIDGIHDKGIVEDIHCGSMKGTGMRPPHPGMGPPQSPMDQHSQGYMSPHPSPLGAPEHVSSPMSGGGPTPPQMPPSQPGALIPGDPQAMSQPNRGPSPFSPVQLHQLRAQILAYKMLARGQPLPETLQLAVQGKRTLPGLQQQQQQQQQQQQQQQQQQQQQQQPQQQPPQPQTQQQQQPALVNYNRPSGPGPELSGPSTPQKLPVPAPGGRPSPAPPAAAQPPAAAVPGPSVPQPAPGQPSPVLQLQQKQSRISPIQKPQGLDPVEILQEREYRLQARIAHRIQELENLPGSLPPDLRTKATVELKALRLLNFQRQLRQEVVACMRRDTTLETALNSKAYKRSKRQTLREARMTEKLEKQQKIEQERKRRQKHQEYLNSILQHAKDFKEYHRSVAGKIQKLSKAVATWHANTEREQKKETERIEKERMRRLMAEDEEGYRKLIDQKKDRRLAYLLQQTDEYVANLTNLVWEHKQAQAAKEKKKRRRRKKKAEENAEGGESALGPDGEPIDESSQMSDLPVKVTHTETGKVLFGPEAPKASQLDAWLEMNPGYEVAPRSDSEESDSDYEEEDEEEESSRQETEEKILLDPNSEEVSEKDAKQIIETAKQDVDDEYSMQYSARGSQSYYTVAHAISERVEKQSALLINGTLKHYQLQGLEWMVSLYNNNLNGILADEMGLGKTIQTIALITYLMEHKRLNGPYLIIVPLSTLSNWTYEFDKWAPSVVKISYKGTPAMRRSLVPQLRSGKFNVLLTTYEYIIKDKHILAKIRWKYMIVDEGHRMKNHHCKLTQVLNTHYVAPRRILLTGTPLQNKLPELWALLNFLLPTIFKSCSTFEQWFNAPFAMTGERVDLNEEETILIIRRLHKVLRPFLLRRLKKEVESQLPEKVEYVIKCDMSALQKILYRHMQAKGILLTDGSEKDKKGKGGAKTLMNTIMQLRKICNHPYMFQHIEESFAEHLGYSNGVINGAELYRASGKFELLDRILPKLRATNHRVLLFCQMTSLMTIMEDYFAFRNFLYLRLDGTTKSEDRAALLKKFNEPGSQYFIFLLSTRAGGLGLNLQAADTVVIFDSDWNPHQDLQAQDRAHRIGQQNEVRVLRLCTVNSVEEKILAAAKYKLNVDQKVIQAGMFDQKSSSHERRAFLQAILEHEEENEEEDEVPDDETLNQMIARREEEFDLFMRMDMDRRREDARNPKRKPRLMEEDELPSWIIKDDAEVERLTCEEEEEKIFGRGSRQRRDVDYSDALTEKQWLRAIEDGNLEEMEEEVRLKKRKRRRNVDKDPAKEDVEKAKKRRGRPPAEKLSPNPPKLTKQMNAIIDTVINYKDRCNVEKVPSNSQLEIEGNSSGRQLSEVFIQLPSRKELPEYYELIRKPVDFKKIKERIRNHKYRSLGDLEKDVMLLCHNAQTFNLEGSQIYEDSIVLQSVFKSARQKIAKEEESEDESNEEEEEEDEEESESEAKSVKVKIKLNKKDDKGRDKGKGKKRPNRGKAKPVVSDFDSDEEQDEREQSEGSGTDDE
Experimental: (§1) Human A549 were seeded in 6-well plate and treated with Ex. 4 or Ex. 2 for 16, 24 and 40 h. Human MOLM13 were seeded in 6-well plate and treated with Ex. 4 for 6, 10, 16, 24 h. After treatment cells were harvested and lysed in RIPA buffer (Thermo Scientific) with Halt Protease and Phosphatase Inhibitor Cocktail (Thermo Scientific). Protein was extracted and quantified by BCA Protein Assay Kit (Pierce). Protein lysate was separated by NuPAGE 3-8% Tris-Acetate protein gels (Invitrogen) and detected by SMARCA2, PARP and β-ACTIN antibodies (Cell Signaling Technology).

SMARCA2 [3] = target: T1, SMARCA2; test: Immunoblot of SMARCA2 in MOLM13 cells; set-up: endogenous in cells
Experimental: as §1

| SMILES | IC50 [1] | time after which cells started to exhibit protein degradation (Western Blot) (SMARCA2 [2]) | time after which cells started to exhibit protein degradation (Western Blot) (SMARCA2 [3]) |
| --- | --- | --- | --- |
| O=C1CCC(N2C(=O)c3cccc(NCCCCCCCCNC(=O)c4cccc(C#Cc5cc(NC(=O)Nc6ccnc(Cl)c6)ccn5)c4)c3C2=O)C(=O)N1 (stereo not shown) [Example 2] | 100 to 1000 nM | 40 h | – |
| O=C1CCC(N2C(=O)c3cccc(NCCOCCOCCNC(=O)c4cccc(C#Cc5cc(NC(=O)Nc6ccnc(Cl)c6)ccn5)c4)c3C2=O)C(=O)N1 (stereo not shown) [Example 3] | 100 to 1000 nM | – | – |
| O=C1CCC(N2C(=O)c3cccc(NCCCCNC(=O)c4cccc(C#Cc5cc(NC(=O)Nc6ccnc(Cl)c6)ccn5)c4)c3C2=O)C(=O)N1 (stereo not shown) [Example 4] | ≤ 100 nM | 40 h | 16 h |
| O=C1CCC(N2C(=O)c3ccc(NCCCCNC(=O)c4cccc(C#Cc5cc(NC(=O)Nc6ccnc(Cl)c6)ccn5)c4)cc3C2=O)C(=O)N1 (stereo not shown) [Example 7] | ≤ 100 nM | – | – |
| O=C1CCC(N2C(=O)c3ccc(NCCOCCNC(=O)c4cccc(C#Cc5cc(NC(=O)Nc6ccnc(Cl)c6)ccn5)c4)cc3C2=O)C(=O)N1 (stereo not shown) [Example 8] | ≤ 100 nM | – | – |
| Cc1ncsc1-c1ccc(CNC(=O)[C@@H]2C[C@@H](O)CN2C(=O)[C@@H](NC(=O)CCCCCNC(=O)c2cccc(C#Cc3cc(NC(=O)Nc4ccnc(Cl)c4)ccn3)c2)C(C)(C)C)cc1 [Example 9] | > 100000 nM | – | – |
| Cc1ncsc1-c1ccc(CNC(=O)[C@@H]2C[C@@H](O)CN2C(=O)[C@@H](NC(=O)COCCOCCOCCNC(=O)c2cccc(C#Cc3cc(NC(=O)Nc4ccnc(Cl)c4)ccn3)c2)C(C)(C)C)cc1 [Example 10] | 1000 to 10000 nM | – | – |
| O=C1CCC(N2C(=O)c3cccc(NCCNC(=O)c4cccc(C#Cc5cc(NC(=O)Nc6ccnc(Cl)c6)ccn5)c4)c3C2=O)C(=O)N1 (stereo not shown) [Example 11] | > 100000 nM | – | – |
| O=C1CCC(N2C(=O)c3cccc(NCCCCCCNC(=O)c4cccc(C#Cc5cc(NC(=O)Nc6ccnc(Cl)c6)ccn5)c4)c3C2=O)C(=O)N1 (stereo not shown) [Example 12] | ≤ 100 nM | – | – |
| O=C1CCC(N2C(=O)c3cccc(NCCCCCCCCCCCC(=O)OCc4cnc(Cl)cc4NC(=O)Nc4cc(C(F)F)ns4)c3C2=O)C(=O)N1 (stereo not shown) [Example 14] | 1000 to 10000 nM | – | – |
